{
  "source": "patent US20150126368A1",
  "about": "“METHOD OF PROVIDING PLANT WITH STRESS RESISTANCE” (Nippon Soda Co., Ltd., priority 2012, published 2015)",
  "type_in_all_cases": "in vivo",
  "key": {"Soybean (breed: Enrei) [1]": {"system": "Soybean (breed: Enrei)", "assay": "Evaluation test for relief effects of salt injury on soybean", "details": "0.1% aqueous sodium chloride from 2 days, raw weight 11 days after spray", "method": "Soybean (breed: Enrei, 2 reprications) hydroponically grown up to the two leaf stage in a greenhouse was prepared.\n(§1) A water dispersible granule of 30% ascorbic acid palmitate and pyraclostrobin adjusted to 40% with N,N-dimethylformamide were diluted with tap water to a predetermined concentration, and the diluted solution was sprayed over the whole nursery plants in a sufficient amount. After air dried, they were cultivated with normal irrigation in a greenhouse. Then, the irrigation conditions were changed to 0.1% aqueous sodium chloride solution in 2 cm depth from 2 days after the spraying, and cultivated up to 11 days after the spray treatment. Then the raw weights of an aerial part and a root part were each measured. From this, injury relief percentages were computed by the following formula.\n(§2) Salt injury relief percentage=((raw weight of each treatment region)−(raw weight of untreated region))/(raw weight of untreated region)×100"}, "[2]": {"system": "Cucumber (breed: Sagamihanjirohushinari)", "assay": "Evaluation test for relief effects of salt injury on cucumber", "details": "0.1% aqueous sodium chloride from 2 days, raw weight 11 days after spray", "method": "Cucumber (breed: Sagamihanjirohushinari, 2 reprications) hydroponically grown up to the two leaf stage in a greenhouse was prepared.\nas §1, §2"}, "Soybean (breed: Enrei) [3]": {"system": "Soybean (breed: Enrei)", "assay": "Evaluation test for relief effects of flood injury on soybean", "details": "flood from 2 days, raw weight 11 days after spray", "method": "Soybean (breed: Enrei, 2 reprications) grown up to the two leaf stage in a greenhouse was prepared.\n(§3) A water dispersible granule of 30% ascorbyl palmitate and pyraclostrobin adjusted to 40% with N,N-dimethylformamide were diluted with tap water to a predetermined concentration, and the diluted solution was sprayed in a sufficient amount. They were subjected to flood conditions up to immediately below the cotyledon from 2 days after the spray treatment, and the raw weights of an above ground part and a root part of soybean were each measured at the elapsed time of 11 days after the spray treatment. From this, injury relief percentages were computed by the following formula.\n(§4) Flood injury relief percentage=((raw weight of each treatment region)−(raw weight of untreated region))/(raw weight of untreated region)×100"}, "[4]": {"system": "Cucumber (breed: Sagamihanjirohushinari)", "assay": "Evaluation test for relief effects of submergence disorder on cucumber", "details": "flood from 2 days, raw weight 11 days after spray", "method": "Cucumber (breed: Sagamihanjirohushinari, 2 reprications) grown up to the two leaf stage in a greenhouse was prepared.\nas §3, with “cucumber” for “soybean”\nas §4"}, "Pyricularia oryzae": {"system": "Pyricularia oryzae", "details": "11 days after inoculation"}, "Tomato (breed: Reiryo)": {"system": "Tomato (breed: Reiryo)", "assay": "Evaluation test for relief effects of strong light injury on tomato", "details": "summer blazing sun, 4 days after spraying", "method": "Tomato (breed: Reiryo, 2 reprications) grown up to the two leaf stage in a greenhouse was prepared.\nA water dispersible granule of 30% of ascorbyl palmitate and pyraclostrobin dissolved to 40% N,N-dimethylformamide were diluted with tap water to each of the concentrations described in Table 9, and the diluted solution was sprayed over the whole nursery plants in a sufficient amount. After air dried, they were exposed to strong light under summer blazing sun. A degree of disorder was investigated at the elapsed time of 4 days after the spraying.\nFor disorder, a degree of necrosis due to light effects was evaluated by 11 levels of disorder indices from 0 (no necrosis) to 10 (withering to death). From this, disorder relief percentages were computed by the following formula.\n(§5) Injury relief percentage=((disorder index of untreated region)−(disorder index of each treated region))/(disorder index of untreated region)×100"}, "[5]": {"system": "Eggplant (breed: Senryo 2 gou)", "assay": "Evaluation test for relief effects of low temperature injury on eggplant", "details": "13° C. daylight/8° C. dark, 15 days after spray", "method": "Eggplant (breed: Senryo 2 gou, 3 reprications) grown up to the 4 to 6 leaf stage in a greenhouse was prepared.\nA water dispersible granule of 30% ascorbyl palmitate and pyraclostrobin dissolved to 40% with N,N-dimethylformamide were diluted with tap water to a concentration described in Table 6, and the diluted solution was sprayed over the whole nursery plants in a sufficient amount. After air dried, they were allowed to grow for 1 day under conditions of 16 hours under a daylight condition at 18° C. and 8 hours under a dark condition at 13° C., and then allowed to grow under conditions of 16 hours under a daylight condition at 13° C. and 8 hours under a dark condition at 8° C. A degree of disorder was investigated at the elapsed time of 15 days after the spray treatment.\nDisorders were evaluated by 4 levels of disorder indices of 0 (no color change), 1 (discolored up to ¼ of the whole), 2 (discolored up to ½ of the whole), 3 (discolored at ½ or more of the whole) with reference to the area of a discolored portion in an expanded leaf after treatment.\nas §5"}, "Tomato (breed: Momotaro)": {"system": "Tomato (breed: Momotaro)", "assay": "Evaluation test for relief effects of high temperature injury on tomato", "details": "sprayed on stem and leaf, 2 days 30° C., then 6 days 40° C. daylight/30° C. dark, vs solvent only", "method": "N,N-dimethylformamide based solutions were prepared according to the formulations shown in Table 3 to give chemical solutions for the tests.\nTomato (breed: Momotaro) grown up to the 2.5 leaf stage in a greenhouse was prepared.\nThe above chemical solution was sprayed to the stem and leaf parts of the above tomato nursery plants in a sufficient amount, and then air dried. They were allowed to grow at 30° C. for 2 days under conditions of 16 hours under a daylight condition and 8 hours under a dark condition. Then, they were allowed to grow for 6 days under conditions of 16 hours under a daylight condition at 40° C. and 8 hours under a dark condition at 30° C.\nDisorders were evaluated by 11 levels of disorder indices from 0 (no disorders) to 10 (withering to death).\nHigh temperature injury relief percentages as compared with a region treated with solvent DMF only (Chemical solution 3) were computed by the following formula.\nHigh temperature injury relief percentage=((disorder index of region treated with solvent only)−(disorder index of each treatment region))/(disorder index of region treated with solvent only)×100"}, "[6]": {"details": "Pyraclostrobin 5 ppm spray on rice (Koshihikari) one day before inoculation"}, "[7]": {"details": "ascorbyl palmitate 1000 ppm spray"}, "[8]": {"details": "ascorbyl palmitate 50 ppm spray on rice (Koshihikari) one day before inoculation"}},
  "note": "Read-outs that look alike come from different tables or passages of the source.",
  "data": [
    {"smiles": "COC(=O)N(OC)c1ccccc1COc1ccn(-c2ccc(Cl)cc2)n1", "note": "[Pyraclostrobin, reference compound]", "values": [
      {"measurement": "relief percents of salt injury in aerial part(%)", "setting": "Soybean (breed: Enrei) [1]; Pyraclostrobin 50 ppm spray", "value": 3.2, "unit": "%"},
      {"measurement": "relief percents of salt injury in root(%)", "setting": "Soybean (breed: Enrei) [1]; Pyraclostrobin 50 ppm spray", "value": 2.5, "unit": "%"},
      {"measurement": "relief percents of salt injury in aerial part(%)", "setting": "[2]; Pyraclostrobin 50 ppm spray", "value": 45.6, "unit": "%"},
      {"measurement": "relief percents of salt injury in root(%)", "setting": "[2]; Pyraclostrobin 50 ppm spray", "value": 20.0, "unit": "%"},
      {"measurement": "relief percents of flood injury in aerial part(%)", "setting": "Soybean (breed: Enrei) [3]; Pyraclostrobin 50 ppm spray", "value": 0.0, "unit": "%"},
      {"measurement": "relief percents of flood injury in root(%)", "setting": "Soybean (breed: Enrei) [3]; Pyraclostrobin 50 ppm spray", "value": 3.2, "unit": "%"},
      {"measurement": "relief percents of flood injury in aerial part(%)", "setting": "[4]; Pyraclostrobin 50 ppm spray", "value": 61.7, "unit": "%"},
      {"measurement": "relief percents of flood injury in root(%)", "setting": "[4]; Pyraclostrobin 50 ppm spray", "value": 39.0, "unit": "%"},
      {"measurement": "Number of lesion spots", "setting": "Pyricularia oryzae; [6]", "value": 10},
      {"measurement": "Preventive value(%)", "setting": "Pyricularia oryzae; [6]", "value": 70, "unit": "%"},
      {"measurement": "relief percents of strong light injury (%)", "setting": "Tomato (breed: Reiryo); Pyraclostrobin 50 ppm spray", "value": 40, "unit": "%"},
      {"measurement": "relief percents of low-temperature injury(%)", "setting": "[5]; Pyraclostrobin 50 ppm spray", "value": 13.0, "unit": "%"},
      {"measurement": "relief percents of high-temperature injury (%)", "setting": "Tomato (breed: Momotaro); Pyraclostrobin 40 ppm in DMF", "value": 35, "unit": "%"}
    ]},
    {"smiles": "CCCCCCCCCCCCCCCC(=O)OC[C@H](O)[C@H]1OC(=O)C(O)=C1O", "note": "[ascorbyl palmitate]", "values": [
      {"measurement": "relief percents of salt injury in aerial part(%)", "setting": "Soybean (breed: Enrei) [1]; [7]", "value": 20.4, "unit": "%"},
      {"measurement": "relief percents of salt injury in root(%)", "setting": "Soybean (breed: Enrei) [1]; [7]", "value": 22.2, "unit": "%"},
      {"measurement": "relief percents of salt injury in aerial part(%)", "setting": "[2]; [7]", "value": 8.8, "unit": "%"},
      {"measurement": "relief percents of salt injury in root(%)", "setting": "[2]; [7]", "value": 16.0, "unit": "%"},
      {"measurement": "relief percents of flood injury in aerial part(%)", "setting": "Soybean (breed: Enrei) [3]; [7]", "value": 2.8, "unit": "%"},
      {"measurement": "relief percents of flood injury in root(%)", "setting": "Soybean (breed: Enrei) [3]; [7]", "value": 20.4, "unit": "%"},
      {"measurement": "relief percents of flood injury in aerial part(%)", "setting": "[4]; [7]", "value": 31.9, "unit": "%"},
      {"measurement": "relief percents of flood injury in root(%)", "setting": "[4]; [7]", "value": 41.5, "unit": "%"},
      {"measurement": "Number of lesion spots", "setting": "Pyricularia oryzae; [8]", "value": 30},
      {"measurement": "Preventive value(%)", "setting": "Pyricularia oryzae; [8]", "value": 9, "unit": "%"},
      {"measurement": "relief percents of strong light injury (%)", "setting": "Tomato (breed: Reiryo); [7]", "value": 50, "unit": "%"},
      {"measurement": "relief percents of low-temperature injury(%)", "setting": "[5]; [7]", "value": 13.0, "unit": "%"},
      {"measurement": "relief percents of high-temperature injury (%)", "setting": "Tomato (breed: Momotaro); ascorbyl palmitate 800 ppm in DMF", "value": 57, "unit": "%"}
    ]}
  ]
}
